Experimental data from US20110144348A1, “VOLTAGE-SENSITIVE DYE AND METHOD OF PREPARING THE SAME” (Electronics and Telecommunications Research Institute, priority 2009, published 2011).

Tests used:
[1] = used in vitro to dye a cell; cited from earlier work
[2] = sensitivity of the VSD according to an external voltage (FIGS. 4A and 4B); conditions: electrical stimulation=500 mA; compared with Di-4-ANEPPS
Text: VSD according to an external voltage, and FIG. 4B is a diagram showing sensitivity of the VSD of the exemplary embodiment of the present invention according to an external voltage.
Referring to FIGS. 4A and 4B, sensitivities according to a voltage between the conventional VSD (Di-4-ANEPPS) in FIG. 4A and the VSD according to the exemplary embodiment of the present invention (ETRI-Di-8) in FIG. 4B are compared (electrical stimulation=500 mA).

| Structure (SMILES) | sensitivity to an electric field [1] | voltage sensitivity relative to Di-4-ANEPPS [2] |
| --- | --- | --- |
| CCCCN(CCCC)c1ccc2cc(/C=C/c3cc[n+](CCCS(=O)(=O)[O-])cc3)ccc2c1 [Di-4-ANEPPS] | approximately 10 % per 100 mV |  |
| O=S1(=O)CCCO1 [ETRI-Di-8] |  | three |
